Measurements taken from PMC5218480 (PLoS ONE, 2017).

Tested on: MV-4-11 cells
Assay: Gene expression microarray analysis (Affymetrix PrimeView) and GSEA
Type: cell-based, human
Design: RFU PODN (11730768_x_at) / Fold change /veh PODN (11730768_x_at) / RFU LINC00158 (11744669_a_at) / Fold change /veh LINC00158 (11744669_a_at) / RFU DUSP10 (11751237_a_at) / Fold change /veh DUSP10 (11751237_a_at) / RFU ID3 (11757404_x_at) / Fold change /veh ID3 (11757404_x_at) / RFU PLEKHG5 (11737974_s_at) / Fold change /veh PLEKHG5 (11737974_s_at) / RFU LRRC4B (11730491_at) / Fold change /veh LRRC4B (11730491_at) / RFU GIMAP4 (11747438_a_at) / Fold change /veh GIMAP4 (11747438_a_at) / RFU KRT8 (11758183_x_at) / Fold change /veh KRT8 (11758183_x_at) / RFU CNN1 (11734310_a_at) / Fold change /veh CNN1 (11734310_a_at) / RFU VPS37D (11726825_at) / Fold change /veh VPS37D (11726825_at) / RFU C10orf10 (11716522_x_at) / Fold change /veh C10orf10 (11716522_x_at) / RFU KIR2DL2 /// KIR2DL4 /// KIR2DL5A /// KIR2DL5B /// KIR2DS1 /// KIR2DS2 /// KIR2DS3 /// KIR2DS4 /// KIR3DL3 /// KIR3DL3 /// KIR3DS1 (11738374_at) / Fold change /veh KIR2DL2 /// KIR2DL4 /// KIR2DL5A /// KIR2DL5B /// KIR2DS1 /// KIR2DS2 /// KIR2DS3 /// KIR2DS4 /// KIR3DL3 /// KIR3DL3 /// KIR3DS1 (11738374_at) / RFU C1QL1 (11718748_at) / Fold change /veh C1QL1 (11718748_at) / RFU TMPRSS4 (11747572_a_at) / Fold change /veh TMPRSS4 (11747572_a_at) / RFU HAMP (11756126_x_at) / Fold change /veh HAMP (11756126_x_at) / RFU RNFT2 (11725882_a_at) / Fold change /veh RNFT2 (11725882_a_at) / RFU NR4A2 (11747474_a_at) / Fold change /veh NR4A2 (11747474_a_at) / RFU ABCC12 (11746883_a_at) / Fold change /veh ABCC12 (11746883_a_at) / RFU TMEM136 (11760407_x_at) / Fold change /veh TMEM136 (11760407_x_at) / RFU CLDN22 /// WWC2 (11732394_at) / Fold change /veh CLDN22 /// WWC2 (11732394_at) / RFU HLA-DPB1 (11760878_x_at) / Fold change /veh HLA-DPB1 (11760878_x_at) / RFU SPINT1 (11716480_a_at) / Fold change /veh SPINT1 (11716480_a_at) / RFU GAP43 (11754022_s_at) / Fold change /veh GAP43 (11754022_s_at) / RFU A4GNT (11735810_at) / Fold change /veh A4GNT (11735810_at) / RFU PRB3 (11715151_x_at) / Fold change /veh PRB3 (11715151_x_at) / RFU TUBB4B (11761932_at) / Fold change /veh TUBB4B (11761932_at) / RFU CAPN14 (11732068_a_at) / Fold change /veh CAPN14 (11732068_a_at) / RFU TMCC2 (11721928_a_at) / Fold change /veh TMCC2 (11721928_a_at) / RFU IRGQ (11745062_a_at) / Fold change /veh IRGQ (11745062_a_at) / RFU FAM174B (11720279_a_at) / Fold change /veh FAM174B (11720279_a_at) / RFU TMPRSS4 (11748680_a_at) / Fold change /veh TMPRSS4 (11748680_a_at) / RFU FAM212B (11763350_a_at) / Fold change /veh FAM212B (11763350_a_at) / RFU PLEKHG5 (11743358_a_at) / Fold change /veh PLEKHG5 (11743358_a_at) / RFU ZSCAN30 (11745921_a_at) / Fold change /veh ZSCAN30 (11745921_a_at) / RFU CMKLR1 (11741424_a_at) / Fold change /veh CMKLR1 (11741424_a_at) / RFU LOC101060620 /// MAPK8IP1 (11723275_at) / Fold change /veh LOC101060620 /// MAPK8IP1 (11723275_at) / RFU SPTSSB (11747773_x_at) / Fold change /veh SPTSSB (11747773_x_at) / RFU PRSS12 (11739890_at) / Fold change /veh PRSS12 (11739890_at) / RFU BIN1 (11741810_x_at) / Fold change /veh BIN1 (11741810_x_at) / RFU WNT11 (11732464_a_at) / Fold change /veh WNT11 (11732464_a_at) / RFU C10orf10 (11716521_a_at) / Fold change /veh C10orf10 (11716521_a_at) / RFU C5orf56 (11738089_at) / Fold change /veh C5orf56 (11738089_at) / RFU CYB561 (11721691_x_at) / Fold change /veh CYB561 (11721691_x_at) / RFU ANKRD19P (11752326_a_at) / Fold change /veh ANKRD19P (11752326_a_at) / RFU OR2T12 /// OR2T33 /// OR2T8 (11738714_s_at) / Fold change /veh OR2T12 /// OR2T33 /// OR2T8 (11738714_s_at) / RFU VCAN (11748164_a_at) / Fold change /veh VCAN (11748164_a_at) / RFU JSRP1 (11732532_at) / Fold change /veh JSRP1 (11732532_at) / RFU KRTAP10-11 (11738290_x_at) / Fold change /veh KRTAP10-11 (11738290_x_at) / RFU MYO3A (11730013_a_at) / Fold change /veh MYO3A (11730013_a_at) / RFU EBF3 (11725865_a_at) / Fold change /veh EBF3 (11725865_a_at) / RFU CAMK2N1 (11719241_x_at) / Fold change /veh CAMK2N1 (11719241_x_at) / RFU C5orf56 (11738088_a_at) / Fold change /veh C5orf56 (11738088_a_at) / RFU OLFML3 (11715873_a_at) / Fold change /veh OLFML3 (11715873_a_at) / RFU LOC100653217 /// NTM (11731650_a_at) / Fold change /veh LOC100653217 /// NTM (11731650_a_at) / RFU MAPK11 (11762145_a_at) / Fold change /veh MAPK11 (11762145_a_at) / RFU FIZ1 (11724087_x_at) / Fold change /veh FIZ1 (11724087_x_at) / RFU OASL (11726364_x_at) / Fold change /veh OASL (11726364_x_at) / RFU SOX15 (11748057_x_at) / Fold change /veh SOX15 (11748057_x_at) / RFU CD79A (11719716_a_at) / Fold change /veh CD79A (11719716_a_at) / RFU HIST1H1D (11736915_at) / Fold change /veh HIST1H1D (11736915_at) / RFU CASKIN2 (11723855_a_at) / Fold change /veh CASKIN2 (11723855_a_at) / RFU LOC730098 (11760151_x_at) / Fold change /veh LOC730098 (11760151_x_at) / RFU OR4N2 (11742367_at) / Fold change /veh OR4N2 (11742367_at) / RFU PRRT2 (11749266_a_at) / Fold change /veh PRRT2 (11749266_a_at) / RFU SNX32 (11753110_a_at) / Fold change /veh SNX32 (11753110_a_at) / RFU CDHR5 (11726645_a_at) / Fold change /veh CDHR5 (11726645_a_at) / RFU RCAN1 (11760418_a_at) / Fold change /veh RCAN1 (11760418_a_at) / RFU FAM167A (11723789_a_at) / Fold change /veh FAM167A (11723789_a_at) / RFU FAM26E (11764081_at) / Fold change /veh FAM26E (11764081_at) / RFU ISYNA1 (11749810_s_at) / Fold change /veh ISYNA1 (11749810_s_at) / RFU ACY1 (11761880_at) / Fold change /veh ACY1 (11761880_at) / RFU 11764098_at / Fold change /veh 11764098_at / RFU SAMD14 (11745864_x_at) / Fold change /veh SAMD14 (11745864_x_at) / RFU NPB (11741838_a_at) / Fold change /veh NPB (11741838_a_at) / RFU TMPRSS6 (11731388_a_at) / Fold change /veh TMPRSS6 (11731388_a_at) / RFU KRTAP10-2 (11738614_at) / Fold change /veh KRTAP10-2 (11738614_at) / RFU ARHGAP8 /// PRR5-ARHGAP8 (11727945_x_at) / Fold change /veh ARHGAP8 /// PRR5-ARHGAP8 (11727945_x_at) / RFU KRTAP5-7 /// NADSYN1 (11734609_at) / Fold change /veh KRTAP5-7 /// NADSYN1 (11734609_at) / RFU RASL12 (11751679_a_at) / Fold change /veh RASL12 (11751679_a_at) / RFU CDKN2B (11736163_a_at) / Fold change /veh CDKN2B (11736163_a_at) / RFU PRF1 (11729649_at) / Fold change /veh PRF1 (11729649_at) / RFU, ZNF638 /// ZNF638-IT1 / Fold change vs veh, ZNF638 /// ZNF638-IT1 / RFU, PANK3 / Fold change vs veh, PANK3 / RFU, SH3YL1 / Fold change vs veh, SH3YL1 / RFU, ZEB2 / Fold change vs veh, ZEB2 / RFU, NRIP1 / Fold change vs veh, NRIP1 / RFU, PTTG1IP / Fold change vs veh, PTTG1IP / RFU, CAPN2 / Fold change vs veh, CAPN2 / RFU, MED14 / Fold change vs veh, MED14 / RFU, SNORA58 / Fold change vs veh, SNORA58 / RFU, C1orf63 / Fold change vs veh, C1orf63 / RFU, LRRFIP1 / Fold change vs veh, LRRFIP1 / RFU, NDUFAF7 / Fold change vs veh, NDUFAF7 / RFU, SLC12A2 / Fold change vs veh, SLC12A2 / RFU, IBTK / Fold change vs veh, IBTK / RFU, ESF1 / Fold change vs veh, ESF1 / Fold change vs veh, TMEM50B / RFU, TAOK1 / Fold change vs veh, TAOK1 / RFU, ACBD3 / Fold change vs veh, ACBD3 / RFU, TMA16 / Fold change vs veh, TMA16 / RFU, RWDD3 / Fold change vs veh, RWDD3 / RFU, BCAT1 / Fold change vs veh, BCAT1 / RFU, EDEM3 / Fold change vs veh, EDEM3 / RFU, TMEM33 / Fold change vs veh, TMEM33 / RFU, WDR75 / Fold change vs veh, WDR75 / RFU, AHCTF1 / Fold change vs veh, AHCTF1 / RFU, TFRC / Fold change vs veh, TFRC / RFU, ZDHHC17 / Fold change vs veh, ZDHHC17 / RFU, NOM1 / Fold change vs veh, NOM1 / RFU, ARL8B / Fold change vs veh, ARL8B / RFU, ZBTB11 / Fold change vs veh, ZBTB11 / RFU, TAMM41 / Fold change vs veh, TAMM41 / RFU, KIAA1704 /// LOC100996395 / Fold change vs veh, KIAA1704 /// LOC100996395 / RFU, ING1 / Fold change vs veh, ING1 / RFU, TRMT61B / Fold change vs veh, TRMT61B / RFU, FUBP3 / Fold change vs veh, FUBP3 / RFU, TP53 / Fold change vs veh, TP53 / RFU, TNKS2 / Fold change vs veh, TNKS2 / RFU, ZFP14 / Fold change vs veh, ZFP14 / RFU, ACTR2 / Fold change vs veh, ACTR2 / RFU, PPP3R1 / Fold change vs veh, PPP3R1 / RFU, PIK3R1 / Fold change vs veh, PIK3R1 / RFU, HNRNPA1 / Fold change vs veh, HNRNPA1 / RFU, RNF170 / Fold change vs veh, RNF170 / RFU, ZNF28 / Fold change vs veh, ZNF28 / RFU, RNGTT / Fold change vs veh, RNGTT / RFU, OGT / Fold change vs veh, OGT / RFU, BRD1 / Fold change vs veh, BRD1 / RFU, MARS / Fold change vs veh, MARS / RFU, ZNF655 / Fold change vs veh, ZNF655 / RFU, FAHD1 / Fold change vs veh, FAHD1 / RFU, BDP1 / Fold change vs veh, BDP1 / RFU, LRRCC1 / Fold change vs veh, LRRCC1 / RFU, ARID1A / Fold change vs veh, ARID1A / RFU, ZNF146 / Fold change vs veh, ZNF146 / RFU, ZNF330 / Fold change vs veh, ZNF330 / RFU, GPN3 / Fold change vs veh, GPN3 / RFU, C9orf123 / Fold change vs veh, C9orf123 / RFU, N4BP2L2 / Fold change vs veh, N4BP2L2 / RFU, ARFIP1 / Fold change vs veh, ARFIP1 / RFU, FAM179B / Fold change vs veh, FAM179B / RFU, BCL10 / Fold change vs veh, BCL10 / RFU, UHRF1BP1L / Fold change vs veh, UHRF1BP1L / RFU, BET1 / Fold change vs veh, BET1 / RFU, CNOT2 / Fold change vs veh, CNOT2 / RFU, ZNF268 / Fold change vs veh, ZNF268 / Fold change vs veh, ZNF507 / RFU, DGCR2 / Fold change vs veh, DGCR2 / RFU, WDSUB1 / Fold change vs veh, WDSUB1 / Fold change vs veh, HSP90B1 /// MIR3652 / RFU, ADSS / Fold change vs veh, ADSS / RFU, GK / Fold change vs veh, GK / RFU, ZNF148 / Fold change vs veh, ZNF148 / RFU, TAF9 / Fold change vs veh, TAF9 / RFU, SLC1A5 / Fold change vs veh, SLC1A5 / RFU, SLMO2 / Fold change vs veh, SLMO2 / RFU, ABCC4 / Fold change vs veh, ABCC4 / RFU, LOC101060439 /// RAP1B / Fold change vs veh, LOC101060439 /// RAP1B / RFU, RFX7 / Fold change vs veh, RFX7 / RFU, GTPBP10 / Fold change vs veh, GTPBP10 / RFU, CNEP1R1 / Fold change vs veh, CNEP1R1 / RFU, BIVM-ERCC5 /// ERCC5 / Fold change vs veh, BIVM-ERCC5 /// ERCC5 / RFU, ILF3 / Fold change vs veh, ILF3 / RFU 11762660_at / Fold change /veh 11762660_at / RFU VCAN (11757783_s_at) / Fold change /veh VCAN (11757783_s_at) / RFU DDX43 (11728927_at) / Fold change /veh DDX43 (11728927_at) / RFU KRT8 (11758188_x_at) / Fold change /veh KRT8 (11758188_x_at) / RFU NKD1 (11759106_at) / Fold change /veh NKD1 (11759106_at) / RFU SRD5A1 (11742802_a_at) / Fold change /veh SRD5A1 (11742802_a_at) / RFU TPSAB1 /// TPSB2 (11721975_s_at) / Fold change /veh TPSAB1 /// TPSB2 (11721975_s_at) / RFU GSTM3 (11746129_a_at) / Fold change /veh GSTM3 (11746129_a_at) / RFU IL23R (11737362_x_at) / Fold change /veh IL23R (11737362_x_at) / RFU TMEM51 (11727254_a_at) / Fold change /veh TMEM51 (11727254_a_at) / RFU PIWIL2 (11732686_x_at) / Fold change /veh PIWIL2 (11732686_x_at) / RFU ORM1 (11744905_x_at) / Fold change /veh ORM1 (11744905_x_at) / RFU CCDC152 (11743942_at) / Fold change /veh CCDC152 (11743942_at) / RFU ECM1 (11717891_a_at) / Fold change /veh ECM1 (11717891_a_at) / RFU IL23R (11748794_a_at) / Fold change /veh IL23R (11748794_a_at) / RFU TNFAIP8L3 (11732012_x_at) / Fold change /veh TNFAIP8L3 (11732012_x_at) / RFU MBOAT4 (11741988_at) / Fold change /veh MBOAT4 (11741988_at) / RFU 11764193_at / Fold change /veh 11764193_at / RFU TMEM53 (11763286_at) / Fold change /veh TMEM53 (11763286_at) / RFU MAGEB2 (11727129_at) / Fold change /veh MAGEB2 (11727129_at) / RFU TMEM200A (11744735_a_at) / Fold change /veh TMEM200A (11744735_a_at) / RFU CCDC152 (11751479_a_at) / Fold change /veh CCDC152 (11751479_a_at) / RFU FAM211A (11726209_a_at) / Fold change /veh FAM211A (11726209_a_at) / RFU RGS16 (11746705_a_at) / Fold change /veh RGS16 (11746705_a_at) / RFU VCAN (11755009_s_at) / Fold change /veh VCAN (11755009_s_at) / RFU RHOB (11743442_s_at) / Fold change /veh RHOB (11743442_s_at) / RFU RGS16 (11720943_a_at) / Fold change /veh RGS16 (11720943_a_at) / RFU RGS16 (11720944_at) / Fold change /veh RGS16 (11720944_at) / RFU, VPS4B / Fold change vs veh, VPS4B / RFU, CREB1 / Fold change vs veh, CREB1 / RFU, DNAJC13 / Fold change vs veh, DNAJC13 / RFU, GNAQ / Fold change vs veh, GNAQ / RFU, CDK5R1 / Fold change vs veh, CDK5R1 / RFU, ZRANB3 / Fold change vs veh, ZRANB3 / RFU, CUL4A / Fold change vs veh, CUL4A / RFU, CCNY / Fold change vs veh, CCNY / RFU, UFL1 / Fold change vs veh, UFL1 / RFU, COG3 / Fold change vs veh, COG3 / RFU, DIAPH2 / Fold change vs veh, DIAPH2 / RFU, SKA2 / Fold change vs veh, SKA2 / RFU, AFF3 / Fold change vs veh, AFF3 / RFU, LMF1 / Fold change vs veh, LMF1 / RFU, IPO11 / Fold change vs veh, IPO11 / RFU, DFFB / Fold change vs veh, DFFB / RFU, FOXP1 / Fold change vs veh, FOXP1 / RFU, CARD8 / Fold change vs veh, CARD8 / RFU, STRN3 / Fold change vs veh, STRN3 / RFU, ADK / Fold change vs veh, ADK / RFU, RASSF2 / Fold change vs veh, RASSF2 / RFU, WIPF1 / Fold change vs veh, WIPF1 / RFU, LARP1B / Fold change vs veh, LARP1B / RFU, RASA1 / Fold change vs veh, RASA1 / RFU, RB1 / Fold change vs veh, RB1 / RFU, PPFIA1 / Fold change vs veh, PPFIA1 / RFU, MAT2A / Fold change vs veh, MAT2A / RFU, CCT5 / Fold change vs veh, CCT5 / RFU, WDR92 / Fold change vs veh, WDR92 / RFU, CUX1 / Fold change vs veh, CUX1 / RFU, TTC7A / Fold change vs veh, TTC7A / RFU, TMEM135 / Fold change vs veh, TMEM135 / RFU, DEPTOR / Fold change vs veh, DEPTOR / RFU, CPM / Fold change vs veh, CPM / RFU, DNAJB6 / Fold change vs veh, DNAJB6 / RFU, CACNA2D3 / Fold change vs veh, CACNA2D3 / RFU, DTX4 / Fold change vs veh, DTX4 / RFU, TFCP2 / Fold change vs veh, TFCP2 / RFU, GMCL1 /// GMCL1P1 / Fold change vs veh, GMCL1 /// GMCL1P1 / RFU, AEBP2 / Fold change vs veh, AEBP2 / RFU, SNHG1 /// SNORD22 /// SNORD25 /// SNORD26 /// SNORD27 /// SNORD28 /// SNORD29 /// SNORD31 / Fold change vs veh, SNHG1 /// SNORD22 /// SNORD25 /// SNORD26 /// SNORD27 /// SNORD28 /// SNORD29 /// SNORD31 / Fold change (Aza/veh), C12orf56 (ProbeSet 11735607_a_at) / Fold change (ACY-1035/veh), C12orf56 (ProbeSet 11735607_a_at) / Fold change (Aza/veh), FGFR1OP (ProbeSet 11751329_s_at) / Fold change (ACY-1035/veh), FGFR1OP (ProbeSet 11751329_s_at) / Fold change (Aza/veh), VPS36 (ProbeSet 11739960_a_at) / Fold change (ACY-1035/veh), VPS36 (ProbeSet 11739960_a_at) / RFU SYPL1 (11715823_x_at) / Fold change /veh SYPL1 (11715823_x_at) / RFU IGFBP7 (11715501_s_at) / Fold change /veh IGFBP7 (11715501_s_at) / RFU REEP3 (11722064_at) / Fold change /veh REEP3 (11722064_at) / RFU IGLL1 (11728026_x_at) / Fold change /veh IGLL1 (11728026_x_at): dose or concentration left out as unconfirmed
Details: ProbeSet 11743510_at; LIST D

Nc1ccc(-c2cccs2)cc1NC(=O)c1ccc2c(c1)cc(C1CC1)n2CCN1CCOCC1 [ACY-1035]
Fold change vs veh, UFL1: 0.85
